Measured values reported in patent publication US12516036B2, “Crystal form of 3-(4-(benzyloxy)phenyl)hex-4-inoic acid derivative” (HYUNDAI PHARM CO., LTD., priority 2019, dated 2026).

Tests used:
[1] = Thermal stability test (thermal stress, 80° C.); assay type: physicochemical; conditions: for Change in properties (appearance): 80° C.; for Purity (%) Initial: before thermal stress test; for Purity (%) Initial / Purity (%) Month 1 / Purity (%) Day 6 / Purity (%) Day 14: HPLC; for Purity change (%) Month 1 − Initial / Purity (%) Month 1 / Purity (%) Day 6 / Purity (%) Day 14: sealed vial, oven 80° C.; for Purity change (%) Month 1 − Initial: 1 month vs initial; for Purity (%) Month 1: 1 month; for Purity (%) Day 6: 6 days; for Purity (%) Day 14: 14 days; for Change in XRD pattern before and after thermal stress: 80° C. thermal stress (FIG. 11-14)
Procedure: The crystal form I, crystal form II, and amorphous form samples of a compound of Chemical Formula 1 were subjected to a thermal stability test.
0.3 g of each sample was input into a 20 mL vial (prepared 0.3 g*3 ea for each sample), and the vial was sealed by closing a lid and then allowed to stand in an oven set at 80° C. Afterward, the sample was taken out after 6 days, 14 days, and 1 month had elapsed, and the changes in properties, purity, and XRD pattern before and after thermal stress conditions were examined. • Purity was measured under the following conditions using a HPLC. • Column: YMC-Pack Pro C18, 5 um, 4.6×150 mm • Column temperature: 35° C. • Flow rate: 1.0 mL/min • Injection volume: 5 uL • Wavelength: 220 nm • Mobile Phase A: 0.1% TFA in H2O/MeOH=60/40 • Mobile Phase B: MeOH/0.1% TFA in ACN=60/40 • Gradient:
• Diluent: H2O/ACN=80/20 • Run time: 40 min • Sample concentration: 0.7 mg/mL

[2] = Compressibility test (bulk/tapped density, Carr index, Hausner ratio); assay type: physicochemical; conditions: for Carr Index (CI): CI=100×(1−BD/TD); for Hausner ratio (Hr): Hr=TD/BD; for Description of flow: criteria of Table 5; for Bulk density BD / Tapped density TD: unit assumed
From the text: Since a drug that causes a lot of static electricity has difficulty in handling and compressing to form a tablet when formulated, it is very difficult to implement a preparation with a uniform drug content. Accordingly, in relation to the static electricity-inducing capability and flowability of the three types of crystal form I, crystal form II, and the amorphous form, the compressibility of each preparation containing these drugs was examined.
The Carr index is used as an indication of the compressibility of a preparation and is related to convenience in formulation, that is, static electricity-inducing capability, flowability, and uniformity of drug content.
The Carr Index (CI) is calculated as follows. CI=100×(1−BD/TD) • BD: bulk density, TD: tapped density
The Hausner ratio (Hr) is also an indication related to the flowability of a powder or granular drug.
The Hausner ratio (Hr) is calculated as follows. Hr=TD/BD
As a result of the test, the bulk density and tapped density of the crystal form I, the crystal form II, and the amorphous form were obtained and summarized in Table 4, through which the Carr Index (CI) and Hausner ratio (Hr) were obtained, and based on the criteria in Table 5, the evaluation results for the Carr Index (CI), Hausner ratio (Hr), and flowability are shown in Table 6.

[3] = Storage stability test (formulated powder, 60° C. and 75% RH); assay type: physicochemical; conditions: for Purity (%) Initial: powder mix with microcrystalline cellulose and light anhydrous silicic acid; for Purity (%) Week 2 / Purity (%) Week 4 / Purity (%) Week 8 / Purity change (%) Week 8 − Initial: powder mix; for Purity (%) Week 2: 2 weeks; for Purity (%) Week 4: 4 weeks; for Purity (%) Week 8: 8 weeks; for Purity change (%) Week 8 − Initial: 8 weeks vs initial
Procedure: In order to confirm stability when the crystal form I, crystal form II, and amorphous form of a compound of Chemical Formula 1 were formulated, powder obtained by mixing 50 mg of each sample, 149 mg of microcrystalline cellulose, and 1 mg of light anhydrous silicic acid was input into a brown glass bottle and allowed to stand in a stability chamber set under conditions of 60° C. and 75% RH, and the sample was taken out after 2 weeks, 4 weeks, 8 weeks had elapsed to confirm the purity of the compound of Chemical Formula 1 over time.
When the storage period for each storage condition was reached, 35 mg of the compound of Chemical Formula 1 was taken from each sample, input into a 50 mL volumetric flask, dissolved with an appropriate amount of diluent, and marked. The resulting solution was input into a glass centrifuge tube and centrifuged at 3,000 rpm and 5° C. for 10 minutes. The sample was taken using a glass pipette and input into a HPLC vial for analysis.

[4] = target: free fatty acid receptor 1 (FFAR1)/a G-protein coupled receptor (GPR40) (Homo sapiens, UniProt O14842); conditions: cited from earlier work
Sequence of free fatty acid receptor 1 (FFAR1)/a G-protein coupled receptor (GPR40) (O14842 whole entry, species assumed): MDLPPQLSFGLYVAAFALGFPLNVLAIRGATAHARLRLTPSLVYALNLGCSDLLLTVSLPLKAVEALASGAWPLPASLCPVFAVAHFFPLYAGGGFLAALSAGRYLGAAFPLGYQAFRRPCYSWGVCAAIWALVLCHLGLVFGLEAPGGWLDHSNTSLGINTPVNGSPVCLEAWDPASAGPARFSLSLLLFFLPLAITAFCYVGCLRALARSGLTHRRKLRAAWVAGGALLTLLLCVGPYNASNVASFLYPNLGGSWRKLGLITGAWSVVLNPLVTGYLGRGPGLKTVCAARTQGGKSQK

[5] = in vivo; cited from earlier work
[6] = after 1 month of the thermal stress test (FIG. 10)

Row | SMILES | Purity (%) Initial [1] [%] | Purity change (%) Month 1 − Initial [1] [%] | Purity (%) Month 1 [1] [%] | Purity (%) Day 6 [1] [%] | Purity (%) Day 14 [1] [%] | Carr Index (CI) [2] | Hausner ratio (Hr) [2] | Description of flow [2] | Bulk density BD [2] [g/mL] | Tapped density TD [2] [g/mL] | Purity (%) Initial [3] [%] | Purity (%) Week 2 ([3]; 60° C. and 75% RH) [%] | Purity (%) Week 4 ([3]; 60° C. and 75% RH) [%] | Purity (%) Week 8 ([3]; 60° C. and 75% RH) [%] | Purity change (%) Week 8 − Initial ([3]; 60° C. and 75% RH) [%] | Change in XRD pattern before and after thermal stress [1] | Change in properties (appearance) [1, 6] | further results
1 | CC#C[C@@H](CC(=O)O)c1ccc(OCc2cccc(C3=CCC4(CC3)OCCO4)c2)cc1 [Amorphous form, (3S)-3-(4-(3-(1,4-dioxaspiro[4,5]dec-7-en-8-yl)benzyloxy)phenyl)hex-4-inoic acid] | 99.33 | −11.69 | 87.64 | 96.76 | 94.35 | 18.48 | 1.23 | Fair (16-20) | 0.353 | 0.433 | 100.6 | 91.5 | 86.8 | 77.5 | −23.1 | – | – | Change in properties (appearance) ([1]; after 6 days of the thermal stress test (FIG. 10)): turned yellow
2 | CC#C[C@@H](CC(=O)O)c1ccc(OCc2cccc(C3=CCC4(CC3)OCCO4)c2)cc1 [Crystal form I, (3S)-3-(4-(3-(1,4-dioxaspiro[4,5]dec-7-en-8-yl)benzyloxy)phenyl)hex-4-inoic acid] | 99.40 | −3.65 | 95.75 | 98.67 | 97.91 | 13.41 | 1.15 | Good (11-15) | 0.381 | 0.44 | 100.2 | 101.8 | 100.9 | 99.9 | −0.3 | no significant change in XRD pattern peak | no significant change in properties | Storage stability ranking ([3]; 60° C. and 75% RH, compared among crystal form I, crystal form II, amorphous form): stablest
3 | CC#C[C@@H](CC(=O)O)c1ccc(OCc2cccc(C3=CCC4(CC3)OCCO4)c2)cc1 [Crystal form II, (3S)-3-(4-(3-(1,4-dioxaspiro[4,5]dec-7-en-8-yl)benzyloxy)phenyl)hex-4-inoic acid] | 99.53 | −3.75 | 95.78 | 98.73 | 97.80 | 54.05 | 2.18 | Very, very poor | 0.136 | 0.296 | 99.1 | 96.2 | 92.3 | 88 | −11.1 | shifting of specific peaks | no significant change in properties | Compressibility test results (in words) [2]: very poor; Static electricity-inducing capability ([2]; filling a die for tableting): excessively caused static electricity
4 | CC#C[C@@H](CC(=O)O)c1ccc(OCc2cccc(C3=CCC4(CC3)OCCO4)c2)cc1 [compound of Chemical Formula 1, (3S)-3-(4-(3-(1,4-dioxaspiro[4,5]dec-7-en-8-yl)benzyloxy)phenyl)hex-4-inoic acid] | – | – | – | – | – | – | – | – | – | – | – | – | – | – | – | – | – | Activation of FFAR1/GPR40 (increase of intracellular calcium concentration) [4]: activates; Blood sugar lowering effect [5]: excellent blood sugar lowering effect
